pIC50: −log10 of the molar value.
Test system: 616215-338-R-J1-PDC complex spheroid viability
Assay: Anticancer human tumor 616215-338-R-J1-PDC patient-derived colon adenocarcinoma cell line growth inhibition [POLQ]
Conditions: for pIC50: curve of first compound; for viability, T/C: stronger effect = lower value
Method in brief: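 PDC + HUVEC + MSC complex spheroids; POLQ inhibitors ± partner drugs; top conc. at/near clinical Cmax, else 10 microM (SN-38 1 microM), half-log dilutions; 37 degrees C, 5% CO2.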

[1] = second compound 0.0316 µM, first compound 0.00316 µM
[2] = second compound 0.0316 µM, first compound 0.01 µM
[3] = second compound 0.0316 µM, first compound 0.0316 µM
[4] = second compound 0.0316 µM, first compound 0.1 µM
[5] = second compound 0.1 µM, first compound 0.00316 µM
[6] = second compound 0.1 µM, first compound 0.01 µM
[7] = second compound 0.1 µM, first compound 0.0316 µM
[8] = second compound 0.1 µM, first compound 0.1 µM
[9] = second compound 0.316 µM, first compound 0.00316 µM
[10] = second compound 0.316 µM, first compound 0.01 µM
[11] = second compound 0.316 µM, first compound 0.0316 µM
[12] = second compound 0.316 µM, first compound 0.1 µM
[13] = second compound 1 µM, first compound 0.00316 µM
[14] = second compound 1 µM, first compound 0.01 µM
[15] = second compound 1 µM, first compound 0.0316 µM
[16] = second compound 1 µM, first compound 0.1 µM
[17] = second compound 3.16 µM, first compound 0.00316 µM
[18] = second compound 3.16 µM, first compound 0.01 µM
[19] = second compound 3.16 µM, first compound 0.0316 µM
[20] = second compound 3.16 µM, first compound 0.1 µM
[21] = second compound 10 µM, first compound 0.00316 µM
[22] = second compound 10 µM, first compound 0.01 µM
[23] = second compound 10 µM, first compound 0.0316 µM
[24] = second compound 10 µM, first compound 0.1 µM
[25] = second compound 0.0316 µM, first compound 0.316 µM
[26] = second compound 0.0316 µM, first compound 1 µM
[27] = second compound 0.1 µM, first compound 0.316 µM
[28] = second compound 0.1 µM, first compound 1 µM
[29] = second compound 0.316 µM, first compound 0.316 µM
[30] = second compound 0.316 µM, first compound 1 µM
[31] = second compound 1 µM, first compound 0.316 µM
[32] = second compound 1 µM, first compound 1 µM
[33] = second compound 3.16 µM, first compound 0.316 µM
[34] = second compound 3.16 µM, first compound 1 µM
[35] = second compound 10 µM, first compound 0.316 µM
[36] = second compound 10 µM, first compound 1 µM
[37] = second compound 0.0316 µM, first compound 3.16 µM
[38] = second compound 0.0316 µM, first compound 10 µM
[39] = second compound 0.1 µM, first compound 3.16 µM
[40] = second compound 0.1 µM, first compound 10 µM
[41] = second compound 0.316 µM, first compound 3.16 µM
[42] = second compound 0.316 µM, first compound 10 µM
[43] = second compound 1 µM, first compound 3.16 µM
[44] = second compound 1 µM, first compound 10 µM
[45] = second compound 3.16 µM, first compound 3.16 µM
[46] = second compound 3.16 µM, first compound 10 µM
[47] = second compound 10 µM, first compound 3.16 µM
[48] = second compound 10 µM, first compound 10 µM
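Also: spheroids exposed to compounds for one week before readout.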
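For viability, T/C in this document: percent viability relative to DMSO vehicle wells taken as 100%.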

## CC[C@@]1(O)C(=O)OCc2c1cc1n(c2=O)Cc2cc3c(CN(C)C)c(O)ccc3nc2-1 + COC1C(OC(N)=O)C(O)C(Oc2ccc3c(O)c(NC(=O)c4ccc(O)c(CC=C(C)C)c4)c(=O)oc3c2C)OC1(C)C
Second compound 0.0316 µM
  pIC50: < 7.00
Second compound 0.1 µM
  pIC50: < 7.00
Second compound 0.316 µM
  pIC50: < 7.00
Second compound 1 µM
  pIC50: < 7.00
Second compound 3.16 µM
  pIC50: < 7.00
Second compound 10 µM
  pIC50: < 7.00
Second compound 0.0316 µM, first compound 0.000316 µM
  viability, T/C: 99.3%
Second compound 0.0316 µM, first compound 0.001 µM
  viability, T/C: 97.5%
[1]
  viability, T/C: 104%
[2]
  viability, T/C: 97.6%
[3]
  viability, T/C: 102%
[4]
  viability, T/C: 81.7%
Second compound 0.1 µM, first compound 0.000316 µM
  viability, T/C: 99.2%
Second compound 0.1 µM, first compound 0.001 µM
  viability, T/C: 112%
[5]
  viability, T/C: 99.5%
[6]
  viability, T/C: 106%
[7]
  viability, T/C: 106%
[8]
  viability, T/C: 78.6%
Second compound 0.316 µM, first compound 0.000316 µM
  viability, T/C: 103%
Second compound 0.316 µM, first compound 0.001 µM
  viability, T/C: 93.5%
[9]
  viability, T/C: 95.1%
[10]
  viability, T/C: 105%
[11]
  viability, T/C: 110%
[12]
  viability, T/C: 90.3%
Second compound 1 µM, first compound 0.000316 µM
  viability, T/C: 101%
Second compound 1 µM, first compound 0.001 µM
  viability, T/C: 98.8%
[13]
  viability, T/C: 98.5%
[14]
  viability, T/C: 101%
[15]
  viability, T/C: 101%
[16]
  viability, T/C: 75.5%
Second compound 3.16 µM, first compound 0.000316 µM
  viability, T/C: 95.3%
Second compound 3.16 µM, first compound 0.001 µM
  viability, T/C: 101%
[17]
  viability, T/C: 99.4%
[18]
  viability, T/C: 100%
[19]
  viability, T/C: 101%
[20]
  viability, T/C: 64.9%
Second compound 10 µM, first compound 0.000316 µM
  viability, T/C: 106%
Second compound 10 µM, first compound 0.001 µM
  viability, T/C: 99.5%
[21]
  viability, T/C: 96.2%
[22]
  viability, T/C: 100%
[23]
  viability, T/C: 93.5%
[24]
  viability, T/C: 58.8%

## CCc1c2c(nc3ccc(O)cc13)-c1cc3c(c(=O)n1C2)COC(=O)[C@]3(O)CC + COC1C(OC(N)=O)C(O)C(Oc2ccc3c(O)c(NC(=O)c4ccc(O)c(CC=C(C)C)c4)c(=O)oc3c2C)OC1(C)C
Second compound 0.0316 µM
  pIC50: 7.03
Second compound 0.1 µM
  pIC50: 7.06
Second compound 0.316 µM
  pIC50: 7.03
Second compound 1 µM
  pIC50: 7.14
Second compound 3.16 µM
  pIC50: 7.31
Second compound 10 µM
  pIC50: 7.51
[1]
  viability, T/C: 110%
[2]
  viability, T/C: 87.6%
[3]
  viability, T/C: 70.6%
[4]
  viability, T/C: 49.2%
[25]
  viability, T/C: 30.4%
[26]
  viability, T/C: 20.2%
[5]
  viability, T/C: 103%
[6]
  viability, T/C: 95.4%
[7]
  viability, T/C: 73.5%
[8]
  viability, T/C: 45.8%
[27]
  viability, T/C: 30.1%
[28]
  viability, T/C: 19.2%
[9]
  viability, T/C: 107%
[10]
  viability, T/C: 95.7%
[11]
  viability, T/C: 67.8%
[12]
  viability, T/C: 50%
[29]
  viability, T/C: 30.8%
[30]
  viability, T/C: 18.5%
[13]
  viability, T/C: 103%
[14]
  viability, T/C: 81.3%
[15]
  viability, T/C: 60.7%
[16]
  viability, T/C: 47.9%
[31]
  viability, T/C: 28.9%
[32]
  viability, T/C: 19.6%
[17]
  viability, T/C: 106%
[18]
  viability, T/C: 87.2%
[19]
  viability, T/C: 59.7%
[20]
  viability, T/C: 35.1%
[33]
  viability, T/C: 24.1%
[34]
  viability, T/C: 20.6%
[21]
  viability, T/C: 86.7%
[22]
  viability, T/C: 65.5%
[23]
  viability, T/C: 53.7%
[24]
  viability, T/C: 32.5%
[35]
  viability, T/C: 21.7%
[36]
  viability, T/C: 21.1%

## Nc1ccn(C2OC(CO)C(O)C2(F)F)c(=O)n1 (stereo not drawn) + COC1C(OC(N)=O)C(O)C(Oc2ccc3c(O)c(NC(=O)c4ccc(O)c(CC=C(C)C)c4)c(=O)oc3c2C)OC1(C)C
Second compound 0.0316 µM
  pIC50: > 7.50
Second compound 0.1 µM
  pIC50: 7.18
Second compound 0.316 µM
  pIC50: 7.18
Second compound 1 µM
  pIC50: 7.21
Second compound 3.16 µM
  pIC50: 7.24
Second compound 10 µM
  pIC50: 7.22
[3]
  viability, T/C: 49.3%
[4]
  viability, T/C: 32.9%
[25]
  viability, T/C: 24%
[26]
  viability, T/C: 35%
[37]
  viability, T/C: 34%
[38]
  viability, T/C: 30%
[7]
  viability, T/C: 62.5%
[8]
  viability, T/C: 42.8%
[27]
  viability, T/C: 28.5%
[28]
  viability, T/C: 29.1%
[39]
  viability, T/C: 30.1%
[40]
  viability, T/C: 35.3%
[11]
  viability, T/C: 56.9%
[12]
  viability, T/C: 46%
[29]
  viability, T/C: 26.4%
[30]
  viability, T/C: 27.7%
[41]
  viability, T/C: 32.1%
[42]
  viability, T/C: 32.9%
[15]
  viability, T/C: 60.1%
[16]
  viability, T/C: 42.7%
[31]
  viability, T/C: 24.4%
[32]
  viability, T/C: 23.2%
[43]
  viability, T/C: 32.6%
[44]
  viability, T/C: 29.3%
[19]
  viability, T/C: 64.8%
[20]
  viability, T/C: 39.5%
[33]
  viability, T/C: 23.1%
[34]
  viability, T/C: 27.8%
[45]
  viability, T/C: 30.6%
[46]
  viability, T/C: 30%
[23]
  viability, T/C: 69.3%
[24]
  viability, T/C: 34.6%
[35]
  viability, T/C: 28.5%
[36]
  viability, T/C: 28.1%
[47]
  viability, T/C: 28.4%
[48]
  viability, T/C: 36.5%

## O=c1[nH]cc(F)c(=O)[nH]1 + COC1C(OC(N)=O)C(O)C(Oc2ccc3c(O)c(NC(=O)c4ccc(O)c(CC=C(C)C)c4)c(=O)oc3c2C)OC1(C)C
Second compound 0.0316 µM
  pIC50: < 5.00
Second compound 0.1 µM
  pIC50: < 5.00
Second compound 0.316 µM
  pIC50: < 5.00
Second compound 1 µM
  pIC50: < 5.00
Second compound 3.16 µM
  pIC50: < 5.00
Second compound 10 µM
  pIC50: < 5.00
[3]
  viability, T/C: 101%
[4]
  viability, T/C: 94.6%
[25]
  viability, T/C: 73.4%
[26]
  viability, T/C: 61.1%
[37]
  viability, T/C: 60.7%
[38]
  viability, T/C: 68.7%
[7]
  viability, T/C: 99.4%
[8]
  viability, T/C: 96.3%
[27]
  viability, T/C: 75.3%
[28]
  viability, T/C: 64.2%
[39]
  viability, T/C: 61%
[40]
  viability, T/C: 61.9%
[11]
  viability, T/C: 100%
[12]
  viability, T/C: 97.2%
[29]
  viability, T/C: 67.3%
[30]
  viability, T/C: 59.3%
[41]
  viability, T/C: 60%
[42]
  viability, T/C: 63%
[15]
  viability, T/C: 95.8%
[16]
  viability, T/C: 94.1%
[31]
  viability, T/C: 75.2%
[32]
  viability, T/C: 58.1%
[43]
  viability, T/C: 52.1%
[44]
  viability, T/C: 59%
[19]
  viability, T/C: 99.2%
[20]
  viability, T/C: 107%
[33]
  viability, T/C: 75.7%
[34]
  viability, T/C: 69.8%
[45]
  viability, T/C: 65.4%
[46]
  viability, T/C: 65.8%
[23]
  viability, T/C: 111%
[24]
  viability, T/C: 99.2%
[35]
  viability, T/C: 68.5%
[36]
  viability, T/C: 57.9%
[47]
  viability, T/C: 54.2%
[48]
  viability, T/C: 61.2%

Source: PubChem BioAssay AID1963843 (Molecular Pharmacology Branch, DTP, NCI, 2024)
